Common to all, as to test: relative viability (nuclei count vs DMSO), 5 days (fraction); higher = more cells survive
Compound in the test “Palbociclib + Lapatinib”: CC(=O)c1c(C)c2cnc(Nc3ccc(N4CCNCC4)cn3)nc2n(C2CCCC2)c1=O [Palbociclib] + CS(=O)(=O)CCNCc1ccc(-c2ccc3ncnc(Nc4ccc(OCc5cccc(F)c5)c(Cl)c4)c3c2)o1 [Lapatinib] (partner 2 µM)
In outline: (§1)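 Nuclei were stained with Hoechst during a one-step fixation (final 0.05% Triton X-100, 1% formaldehyde, 1 ug/ml Hoechst) carried out 5 days after dosing, then counted on 4× images. The cells, lung cancer lines in 1536-well plates, had been dosed by pin tool the day after seeding with one drug alone or a fixed anchor-drug dose plus five library-drug doses (not always all listed) in √10 steps. Relative viability is the nuclei count in treated wells divided by that in vehicle wells, and each value is the median of duplicate plates.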

Compound in the test “Palbociclib + Phenformin”: CC(=O)c1c(C)c2cnc(Nc3ccc(N4CCNCC4)cn3)nc2n(C2CCCC2)c1=O [Palbociclib] + N=C(N)NC(=N)NCCc1ccccc1 [Phenformin] (partner 250 µM)
In outline:
as §1

Compound in the test “Palbociclib + AZD7762”: CC(=O)c1c(C)c2cnc(Nc3ccc(N4CCNCC4)cn3)nc2n(C2CCCC2)c1=O [Palbociclib] + NC(=O)Nc1cc(-c2cccc(F)c2)sc1C(=O)N[C@H]1CCCNC1 [AZD7762] (partner 0.2 µM)
Put shortly: as §1

Compound in the test “Palbociclib + Vorinostat”: CC(=O)c1c(C)c2cnc(Nc3ccc(N4CCNCC4)cn3)nc2n(C2CCCC2)c1=O [Palbociclib] + O=C(CCCCCCC(=O)Nc1ccccc1)NO [Vorinostat] (partner 1 µM)
In outline: as §1

For the cell line NCI-H460, the relative viability with Palbociclib + Lapatinib (first compound 0.01 µM) was determined as 0.92; in the test with Palbociclib + Lapatinib (first compound 0.03162 µM), 0.813; in the test with Palbociclib + Lapatinib (first compound 0.1 µM) it was 0.71; with Palbociclib + Lapatinib (first compound 0.3162 µM), 0.516; in the test with Palbociclib + Lapatinib (first compound 1 µM), 0.207; in the test with Palbociclib + Phenformin (first compound 0.01 µM) it was 0.537. Also, the relative viability is 0.411 with Palbociclib + Phenformin (first compound 0.03162 µM); 0.409 with Palbociclib + Phenformin (first compound 0.1 µM); 0.333 with Palbociclib + Phenformin (first compound 0.3162 µM); 0.149 with Palbociclib + Phenformin (first compound 1 µM); 0.591 with Palbociclib + AZD7762 (first compound 0.01 µM); 0.512 with Palbociclib + AZD7762 (first compound 0.03162 µM). Also, the relative viability with Palbociclib + AZD7762 (first compound 0.1 µM) worked out at 0.557; with Palbociclib + AZD7762 (first compound 0.3162 µM), 0.484; in the test with Palbociclib + AZD7762 (first compound 1 µM), 0.178; in the test with Palbociclib + Vorinostat (first compound 0.01 µM) it was 0.669; with Palbociclib + Vorinostat (first compound 0.03162 µM), 0.604; with Palbociclib + Vorinostat (first compound 0.1 µM) it was 0.454. In addition, the relative viability was 0.369 with Palbociclib + Vorinostat (first compound 0.3162 µM) and 0.115 with Palbociclib + Vorinostat (first compound 1 µM).
NCI-H596: the relative viability was determined as 1.28 in the test with Palbociclib + Lapatinib (first compound 0.01 µM); 1.07 with Palbociclib + Lapatinib (first compound 0.03162 µM); 0.974 with Palbociclib + Lapatinib (first compound 0.1 µM); 1.2 in the test with Palbociclib + Lapatinib (first compound 0.3162 µM); 1.14 with Palbociclib + Lapatinib (first compound 1 µM); 0.982 with Palbociclib + Phenformin (first compound 0.01 µM). For the same cell line, the relative viability with Palbociclib + Phenformin (first compound 0.1 µM) was determined as 0.757; in the test with Palbociclib + Phenformin (first compound 0.3162 µM) it was 0.712; with Palbociclib + Phenformin (first compound 1 µM), 0.673; with Palbociclib + AZD7762 (first compound 0.01 µM), 1.15; with Palbociclib + AZD7762 (first compound 0.03162 µM) it was 0.96; with Palbociclib + AZD7762 (first compound 0.1 µM), 1.1. The relative viability with Palbociclib + AZD7762 (first compound 0.3162 µM) stood at 1.01; with Palbociclib + AZD7762 (first compound 1 µM), 1.09; with Palbociclib + Vorinostat (first compound 0.01 µM) it was 0.656; with Palbociclib + Vorinostat (first compound 0.03162 µM), 0.655; with Palbociclib + Vorinostat (first compound 0.1 µM), 0.589; with Palbociclib + Vorinostat (first compound 0.3162 µM), 0.768. Moreover, the relative viability in the test with Palbociclib + Vorinostat (first compound 1 µM) was 0.57.
With NCI-H647, the relative viability with Palbociclib + Lapatinib (first compound 0.01 µM) was 1.26; in the test with Palbociclib + Lapatinib (first compound 0.03162 µM), 0.956; with Palbociclib + Lapatinib (first compound 0.1 µM), 0.778; with Palbociclib + Lapatinib (first compound 0.3162 µM) it was 0.923; with Palbociclib + Lapatinib (first compound 1 µM), 0.525; with Palbociclib + Phenformin (first compound 0.01 µM) it was 0.639. Besides, the relative viability in the test with Palbociclib + Phenformin (first compound 0.03162 µM) came out at 0.382; in the test with Palbociclib + Phenformin (first compound 0.1 µM), 0.379; with Palbociclib + Phenformin (first compound 0.3162 µM) it was 0.464; with Palbociclib + Phenformin (first compound 1 µM), 0.257; in the test with Palbociclib + AZD7762 (first compound 0.01 µM) it was 0.645; with Palbociclib + AZD7762 (first compound 0.03162 µM), 0.3. Further, the relative viability with Palbociclib + AZD7762 (first compound 0.1 µM) was 0.368; in the test with Palbociclib + AZD7762 (first compound 0.3162 µM) it was 0.326; with Palbociclib + AZD7762 (first compound 1 µM) it was 0.197; with Palbociclib + Vorinostat (first compound 0.01 µM) it was 0.576; with Palbociclib + Vorinostat (first compound 0.03162 µM), 0.313; with Palbociclib + Vorinostat (first compound 0.1 µM), 0.616. Moreover, the relative viability came to 0.409 with Palbociclib + Vorinostat (first compound 0.3162 µM) and 0.458 in the test with Palbociclib + Vorinostat (first compound 1 µM).
As to NCI-H650, the relative viability was determined as 1.3 in the test with Palbociclib + Lapatinib (first compound 0.01 µM); 0.657 in the test with Palbociclib + Lapatinib (first compound 0.1 µM); 0.818 with Palbociclib + Lapatinib (first compound 0.3162 µM); 0.434 in the test with Palbociclib + Lapatinib (first compound 1 µM); 0.447 in the test with Palbociclib + Phenformin (first compound 0.01 µM); 0.371 with Palbociclib + Phenformin (first compound 0.03162 µM). In addition, the relative viability with Palbociclib + Phenformin (first compound 0.1 µM) was 0.403; with Palbociclib + Phenformin (first compound 0.3162 µM) it was 0.352; with Palbociclib + Phenformin (first compound 1 µM), 0.316; with Palbociclib + AZD7762 (first compound 0.01 µM), 0.949; with Palbociclib + AZD7762 (first compound 0.1 µM) it was 0.978; with Palbociclib + AZD7762 (first compound 0.3162 µM), 0.921. Besides, the relative viability with Palbociclib + AZD7762 (first compound 1 µM) was determined as 0.686; with Palbociclib + Vorinostat (first compound 0.01 µM) it was 0.537; in the test with Palbociclib + Vorinostat (first compound 0.1 µM) it was 0.366; in the test with Palbociclib + Vorinostat (first compound 0.3162 µM) it was 0.359; with Palbociclib + Vorinostat (first compound 1 µM), 0.314.
In the case of NCI-H727, the relative viability in the test with Palbociclib + Lapatinib (first compound 0.01 µM) was determined as 0.777; in the test with Palbociclib + Lapatinib (first compound 0.03162 µM), 0.555; with Palbociclib + Lapatinib (first compound 0.1 µM), 0.417; with Palbociclib + Lapatinib (first compound 0.3162 µM), 0.386; in the test with Palbociclib + Lapatinib (first compound 1 µM), 0.436; in the test with Palbociclib + Phenformin (first compound 0.01 µM), 0.472. Moreover, the relative viability with Palbociclib + Phenformin (first compound 0.03162 µM) turned out to be 0.453; with Palbociclib + Phenformin (first compound 0.1 µM), 0.422; with Palbociclib + Phenformin (first compound 0.3162 µM) it was 0.467; with Palbociclib + Phenformin (first compound 1 µM) it was 0.362; with Palbociclib + AZD7762 (first compound 0.01 µM), 0.593; with Palbociclib + AZD7762 (first compound 0.03162 µM), 0.511. Besides, the relative viability in the test with Palbociclib + AZD7762 (first compound 0.1 µM) came out at 0.584; with Palbociclib + AZD7762 (first compound 0.3162 µM) it was 0.447; with Palbociclib + AZD7762 (first compound 1 µM), 0.461; with Palbociclib + Vorinostat (first compound 0.01 µM), 1.25; in the test with Palbociclib + Vorinostat (first compound 0.03162 µM), 1.03; with Palbociclib + Vorinostat (first compound 0.1 µM), 1.01. Besides, the relative viability in the test with Palbociclib + Vorinostat (first compound 0.3162 µM) is 1.01; with Palbociclib + Vorinostat (first compound 1 µM), 0.909.
In the case of NCI-H838, the relative viability with Palbociclib + Lapatinib (first compound 0.01 µM) was 0.919; with Palbociclib + Lapatinib (first compound 0.03162 µM) it was 0.927; with Palbociclib + Lapatinib (first compound 0.1 µM) it was 0.767; with Palbociclib + Lapatinib (first compound 0.3162 µM), 0.776; with Palbociclib + Lapatinib (first compound 1 µM) it was 0.276; in the test with Palbociclib + Phenformin (first compound 0.01 µM), 0.628. Also, the relative viability came to 0.562 with Palbociclib + Phenformin (first compound 0.03162 µM); 0.402 with Palbociclib + Phenformin (first compound 0.1 µM); 0.467 with Palbociclib + Phenformin (first compound 0.3162 µM); 0.202 in the test with Palbociclib + Phenformin (first compound 1 µM); 0.85 with Palbociclib + AZD7762 (first compound 0.01 µM); 0.891 with Palbociclib + AZD7762 (first compound 0.03162 µM). Besides, the relative viability in the test with Palbociclib + AZD7762 (first compound 0.1 µM) was 0.815; with Palbociclib + AZD7762 (first compound 0.3162 µM), 0.862; with Palbociclib + AZD7762 (first compound 1 µM), 0.693; with Palbociclib + Vorinostat (first compound 0.01 µM), 0.71; in the test with Palbociclib + Vorinostat (first compound 0.03162 µM), 0.623; in the test with Palbociclib + Vorinostat (first compound 0.1 µM), 0.543. Moreover, the relative viability with Palbociclib + Vorinostat (first compound 0.3162 µM) was found to be 0.478; in the test with Palbociclib + Vorinostat (first compound 1 µM), 0.314.
Take NCI-H1355: the relative viability with Palbociclib + Lapatinib (first compound 0.01 µM) was 0.949; with Palbociclib + Lapatinib (first compound 0.1 µM), 0.901; in the test with Palbociclib + Lapatinib (first compound 0.3162 µM) it was 0.793; with Palbociclib + Lapatinib (first compound 1 µM), 0.523; with Palbociclib + Phenformin (first compound 0.01 µM), 0.511; in the test with Palbociclib + Phenformin (first compound 0.03162 µM), 0.39. The relative viability was determined as 0.387 with Palbociclib + Phenformin (first compound 0.1 µM); 0.385 with Palbociclib + Phenformin (first compound 0.3162 µM); 0.26 in the test with Palbociclib + Phenformin (first compound 1 µM); 0.672 with Palbociclib + AZD7762 (first compound 0.01 µM); 0.572 with Palbociclib + AZD7762 (first compound 0.03162 µM); 0.733 with Palbociclib + AZD7762 (first compound 0.1 µM). Also, the relative viability with Palbociclib + AZD7762 (first compound 0.3162 µM) is 0.697; with Palbociclib + AZD7762 (first compound 1 µM), 0.571; with Palbociclib + Vorinostat (first compound 0.01 µM), 0.619; in the test with Palbociclib + Vorinostat (first compound 0.03162 µM), 0.578; with Palbociclib + Vorinostat (first compound 0.1 µM), 0.548; with Palbociclib + Vorinostat (first compound 0.3162 µM), 0.629. Further, the relative viability in the test with Palbociclib + Vorinostat (first compound 1 µM) turned out to be 0.465.
